What was measured:
[1] = tested on: REL-A (p65) nuclear translocation, HeLa cells; experiment: REL-A (p65) nuclear translocation assay in HeLa cells (classical NF-kB signaling, TNF-α stimulated); type: cell-based; conditions: Homo sapiens, 0.5 h; HeLa cells, 10 ng/mL TNF-α for 30 minutes; read-out: REL-A HeLa Transloc Assay (IC50)
Summary of the method: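 HeLa cells were exposed to test compounds at various concentrations (0.2% DMSO final) in medium with 10% fetal bovine serum for 4.5 hours, then stimulated for 30 minutes with 10 ng/mL TNF-α. After fixation in 4% paraformaldehyde, 0.1% Triton X-100 permeabilization and staining with 400 ng/mL anti-REL-A (p65) antibody, Alexa488 secondary and DRAQ5, Opera imaging gave nuclear-to-cytoplasmic signal ratios to calculate IC50.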

[2] = target: nuclear factor-kappa B (NF-kB)-inducing kinase (NIK) (Homo sapiens (Human), UniProt Q99558); experiment: NIK enzyme inhibition assay (Transcreener ADP, NIK ADP-FP); type: biochemical; conditions: purified NIK 0.5 nM, 10 μM ATP, fluorescence polarization; read-out: NIK ADP-FP (Ki μM)
[3] = tested on: p52 (NF-kB2) nuclear translocation, HeLa cells; experiment: p52 (NF-kB2) nuclear translocation assay in HeLa cells (non-classical NF-kB signaling, anti-lymphotoxin beta receptor antibody stimulated); type: cell-based; conditions: Homo sapiens, 100 ng/mL anti-lymphotoxin beta receptor antibody for 5 hours, read-out: p52 HeLa Transloc Assay (IC50)
Summary of the method: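 HeLa cells in 10% FBS medium were treated with compound (0.2% DMSO final) and stimulated with 100 ng/mL anti-lymphotoxin beta receptor antibody for 5 h. Fixed cells were immunostained for p52 and imaged with DRAQ5 nuclear stain. Translocation is the nuclear to cytoplasmic intensity ratio, and IC50 values are in micromolar.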

Sequence of nuclear factor-kappa B (NF-kB)-inducing kinase (NIK) (Q99558 whole entry): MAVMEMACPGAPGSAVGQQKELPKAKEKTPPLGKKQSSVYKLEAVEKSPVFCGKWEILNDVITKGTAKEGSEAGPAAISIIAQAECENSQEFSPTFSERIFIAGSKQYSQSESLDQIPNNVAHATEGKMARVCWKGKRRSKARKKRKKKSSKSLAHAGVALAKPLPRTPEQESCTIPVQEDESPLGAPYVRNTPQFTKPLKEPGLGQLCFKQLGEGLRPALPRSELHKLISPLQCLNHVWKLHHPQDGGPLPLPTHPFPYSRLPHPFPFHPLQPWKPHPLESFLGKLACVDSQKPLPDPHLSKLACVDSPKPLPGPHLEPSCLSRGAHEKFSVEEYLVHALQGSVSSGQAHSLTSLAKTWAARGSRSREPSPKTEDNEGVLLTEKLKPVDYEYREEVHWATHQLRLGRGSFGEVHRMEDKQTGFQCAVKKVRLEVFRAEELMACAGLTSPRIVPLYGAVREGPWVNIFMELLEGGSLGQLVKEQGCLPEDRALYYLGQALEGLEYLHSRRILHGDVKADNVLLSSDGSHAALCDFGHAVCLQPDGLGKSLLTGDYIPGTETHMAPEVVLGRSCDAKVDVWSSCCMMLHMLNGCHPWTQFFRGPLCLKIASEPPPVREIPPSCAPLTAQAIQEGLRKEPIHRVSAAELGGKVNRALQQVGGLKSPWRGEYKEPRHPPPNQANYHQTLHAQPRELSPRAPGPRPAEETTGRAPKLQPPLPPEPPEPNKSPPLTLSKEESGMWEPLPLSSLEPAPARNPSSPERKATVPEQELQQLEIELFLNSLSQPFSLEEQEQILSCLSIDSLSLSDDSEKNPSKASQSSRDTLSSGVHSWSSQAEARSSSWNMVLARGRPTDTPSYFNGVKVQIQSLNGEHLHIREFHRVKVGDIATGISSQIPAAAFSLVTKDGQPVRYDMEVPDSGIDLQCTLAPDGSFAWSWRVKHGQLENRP

Structure (SMILES) | IC50 [1] [nM] | Ki [2] [nM] | IC50 [3] [nM]
CN1CC[C@@](O)(C#Cc2cccc(-n3nc(C(N)=O)c4c3CCC4)c2)C1=O [Compound 119, 1-[3-[2-[(3R)-3-hydroxy-1-methyl-2-oxo-pyrrolidin-3-yl]ethynyl]phenyl]-5,6-dihydro-4H-cyclopenta[c]pyrazole-3-carboxamide] | 20000 | 0.43 | 45.8
CN1CC[C@@](O)(C#Cc2cccc(-n3nc(C(N)=O)c4c3CCCN4)c2)C1=O [Compound 151, 1-[3-[2-[(3R)-3-hydroxy-1-methyl-2-oxo-pyrrolidin-3-yl]ethynyl]phenyl]-4,5,6,7-tetra-hydropyrazolo[4,3-b]pyri-dine-3-carboxamide] | 2000 | 3.96 | 1030
CN1CC[C@@](O)(C#Cc2cccc(-c3nc(C(N)=O)n4c3CCCC4)c2)C1=O [Compound 177, (R)-1-(3-((3-hydroxy-1-methyl-2-oxopyrrolidin-3-yl)ethynyl)phenyl)-5,6,7,8-tetrahydroimidazo[1,5-a]pyridine-3-carboxamide] | > 2000 | 0.11 | 150
CN1CC[C@@](O)(C#Cc2cccc(-n3nc(C(N)=O)c4c3COC4)c2)C1=O [Compound 146, 1-[3-[2-[(3R)-3-hydroxy-1-methyl-2-oxo-pyrrolidin-3-yl]ethynyl]phenyl]-4,6-dihydro-furo[3,4-c]pyrazole-3-carbox-amide] | 20000 | 1.77 | 220
CN1CC[C@@](O)(C#Cc2cc(Cl)cc(-n3nc(C(N)=O)c4cccnc43)c2)C1=O [Compound 44, 1-[3-chloro-5-[2-[(3R)-3-hy-droxy-1-methyl-2-oxo-pyrroli-din-3-yl]ethynyl]phenyl] pyrazolo[3,4-b]pyridine-3-carboxamide] | 20000 | 0.5 | 62
CN1CC[C@@](O)(C#Cc2cccc(-n3nc(C(N)=O)c4ccc(N5CCOCC5)nc43)c2)C1=O [Compound 155, 1-[3-[2-[(3R)-3-hydroxy-1-methyl-2-oxo-pyrrolidin-3-yl]ethynyl]phenyl]-6-morpho-lino-pyrazolo[3,4-b]pyri-dine-3-carboxamide] | 20000 | 0.26 | 129
C[C@@H]1CCc2c1c(C(N)=O)nn2-c1cccc(C#C[C@]2(O)CCN(C)C2=O)c1 [Compound 109, (4R)-1-[3-[2-[(3R)-3-hydroxy-1-methyl-2-oxo-pyrrolidin-3-yl]ethynyl]phenyl]-4-methyl-5,6-dihydro-4H-cyclo-penta[c]pyrazole-3-carbox-amide] | 20000 | 9.58 | 209
CN1CC[C@@](O)(C#Cc2cccc(-n3nc(C(N)=O)c4cc(-c5ccn(C)n5)ccc43)c2)C1=O [Compound 101, 1-[3-[2-[(3R)-3-hydroxy-1-methyl-2-oxo-pyrrolidin-3-yl]ethynyl]phenyl]-5-(1-meth-ylpyrazol-3-yl)indazole-3-carboxamide] | 6320 | 0.06 | 31.2
CN1CC[C@@](O)(C#Cc2cccc(-c3csc(C(N)=O)n3)c2)C1=O [Compound 89, 4-[3-[2-[(3R)-3-hydroxy-1-methyl-2-oxo-pyrrolidin-3-yl]ethynyl]phenyl]thiazole-2-carboxamide] | > 20000 | 1.65 | 226
N#Cc1cc2c(cn1)c(C(N)=O)nn2-c1cccc(C#C[C@@]2(O)CCc3cccnc32)c1 [Compound 135, 6-cyano-1-[3-[2-[(7S)-7-hy-droxy-5,6-dihydrocyclopen-ta[b]pyridin-7-yl]ethynyl]phe-nyl]pyrazolo[4,3-c]pyridine-3-carboxamide] | 20000 | 0.7 | 91.4
CN1CC[C@@](O)(C#Cc2cc(-n3nc(C(N)=O)c4cccnc43)cc(C(F)(F)F)c2)C1=O [Compound 36, 1-[3-[2-[(3R)-3-hydroxy-1-methyl-2-oxo-pyrrolidin-3-yl]ethynyl]-5-(trifluorometh-yl)phenyl]pyrazolo[3,4-b] pyridine-3-carboxamide] | 20000 | 5.53 | 164
CN1CC[C@@](O)(C#Cc2cccc(-n3nc(C(N)=O)c4c3CCC[C@H]4O)c2)C1=O [Compound 2, (4R)-4-hydroxy-1-[3-[2-[(3R)-3-hydroxy-1-methyl-2-oxo-pyrrolidin-3-yl]ethynyl]phenyl]-4,5,6,7-tetrahydroinda-zole-3-carboxamide] | 20000 | 1.07 | 273
CN1CC[C@@](O)(C#Cc2cccc(-n3nc(C(N)=O)c4cc(F)cnc43)c2)C1=O [Compound 75, 5-fluoro-1-[3-[2-[(3R)-3-hy-droxy-1-methyl-2-oxo-pyrroli-din-3-yl]ethynyl]phenyl] pyrazolo[3,4-b]pyridine-3-carboxamide] | 20000 | 0.24 | 56.9
CN1CC[C@@](O)(C#Cc2cc(C#N)cc(-n3nc(C(N)=O)c4cccnc43)c2)C1=O [Compound 111, 1-[3-cyano-5-[2-[(3R)-3-hy-droxy-1-methyl-2-oxo-pyrroli-din-3-yl]ethynyl]phenyl] pyrazolo[3,4-b]pyridine-3-carboxamide] | 20000 | 4.86 | 701
COc1ccc2c(c1)c(C(N)=O)nn2-c1cccc(C#C[C@]2(O)CCN(C)C2=O)c1 [Compound 14, 1-[3-[2-[(3R)-3-hydroxy-1-methyl-2-oxo-pyrrolidin-3-yl]ethynyl]phenyl]-5-methoxy-indazole-3-carboxamide] | 20000 | 0.05 | 67.8
Cc1nnc([C@](C)(O)C#Cc2cccc(-c3nc(C(N)=O)n4ccc(Cl)cc34)c2)o1 [Compound 187, 7-chloro-1-[3-[(3R)-3-hydroxy-3-(5-methyl-1,3,4-oxadiazol-2-yl)but-1-ynyl]phenyl] imidazo[1,5-a]pyridine-3-carboxamide] | > 2000 | 1.12 | 198
CN1CC[C@@](O)(C#Cc2cccc(-n3nc(C(N)=O)c4c3CCN(c3ncccn3)C4)c2)C1=O [Compound 121, 1-[3-[2-[(3R)-3-hydroxy-1-methyl-2-oxo-pyrrolidin-3-yl]ethynyl]phenyl]-5-pyrimi-din-2-yl-6,7-dihydro-4H-pyra-zolo[4,3-c]pyridine-3-carbox-amide] | 20000 | 1.05 | 203
CN1CC[C@@](O)(C#Cc2cccc(-n3nc(C(N)=O)c4ccncc43)c2)C1=O [Compound 148, 1-[3-[2-[(3R)-3-hydroxy-1-methyl-2-oxo-pyrrolidin-3-yl]ethynyl]phenyl]pyrazolo [3,4-c]pyridine-3-carboxamide] | 20000 | 0.38 | 110
CN1CC[C@@](O)(C#Cc2cccc(-n3nc(C(N)=O)c4scnc43)c2)C1=O [Compound 144, 1-[3-[2-[(3R)-3-hydroxy-1-methyl-2-oxo-pyrrolidin-3-yl]ethynyl]phenyl]pyrazolo [3,4-d]thiazole-3-carboxamide] | 20000 | 0.31 | 33.1
CN1CC[C@@](O)(C#Cc2cccc(-n3nc(C(N)=O)c4ncccc43)c2)C1=O [Compound 164, 1-[3-[2-[(3R)-3-hydroxy-1-methyl-2-oxo-pyrrolidin-3-yl]ethynyl]phenyl)pyrazolo [4,3-b]pyridine-3-carboxamide] | 20000 | 1.54 | 208

— patent publication US9605005B2, “Alkynyl alcohols and methods of use” (Genentech, Inc., priority 2013, dated 2017)
